Patent publication US20210196899A1, “MICRONEEDLE COATED WITH DRUG AND MANUFACTURING METHOD FOR SAME” (SR BIOTEK INC., priority 2018, published 2021)
No end group written: not given here.

Tested on: Fibroblasts (CCD-986SK)
Assay: Measurement of collagen content in cell line (Procollagen type I peptide EIA kit)
Assay type: cell-based
Conditions: FIG. 4
Method: The culture supernatant was collected and the amount of collagen was measured as described below according to the guidelines of the Ministry of Food and Drug Safety, and the results thereof are shown in FIG. 4.
100 μl of an antibody-PoD conjugate solution was placed in each well, after which the culture solution and a standard solution were added in an amount of 20 μL thereto and cultured at 37° C. for 3 hr. The culture solution was removed from the well, followed by washing four times with 400 μL of a phosphate-buffered saline (PBS). 100 μL of a color development reagent (Procollagen type I peptide EIA kit, Takara Biomedical Co.) was added thereto, followed by culture at room temperature for 15 min, addition with 100 μL of 1 N sulfuric acid, and measurement at 450 nm using an ELISA reader.

| Compound | collagen synthesis and promotion effects (50 to 200 ppm) | also measured |
| --- | --- | --- |
| NCCCC[C@H](NC(=O)[C@H](Cc1c[nH]cn1)NC(=O)CNC(=O)CS)C(=O)O [GHK-TA] |  | collagen synthesis and promotion effects (concentration of 70 to 80 ppm, 24 hr): superior collagen synthesis and promotion effects |
| (EEMQRR)-TA: sulfhydryl-hexapeptide of Example 1-3-1-3; Chemical Formula 7 Glu-Glu-Met-Gln-Arg-Arg-X with linker X thioglycolic acid (TA) (EEMQRR-{thioglycolic acid}) |  | collagen synthesis and promotion effects (thioglycolic acid (TA) as the linker compared to cysteine (CS) as the linker): superior collagen synthesis and promotion effects |
| KTTKS [reference compound] | increased in proportion to the concentration |  |
| KTTKS-TA: sulfhydryl KTTKS of Example 1-3-1-2; Chemical Formula 5 Lys-Thr-Thr-Lys-Ser-X with linker X thioglycolic acid (TA) (KTTKS-{thioglycolic acid}) | vastly superior compared to KTTKS |  |
